Values of other authors as cited in patent US9476892B2, “Composition and method for measuring thallium influx and efflux” (priority 2007, dated 2016).

Conditions: background statement, poorly soluble

## [Cl][Tl] [thallium chloride]
  concentration at which thallium chloride precipitates out of solution: ≥ 4500 µM
